The subject of data set [1] is T. cruzi (amastigotes, Tulahuen C4 strain). In words: In vitro activity against T. cruzi. The class given is cell-based, Trypanosoma cruzi. As to conditions: for IC50: Trypanosoma cruzi, Tulahuen C4 strain, amastigotes, geometric mean of 2 experiments ±SE (values marked a: only one experiment); for SI T. cruzi: selectivity index determined with L6 cells. As to the method:
(§1) As part of an extensive screening of Asteraceae from the Brazilian “Cerrado”, extracts obtained from the leaves of Aldama discolor with solvents of different polarity (n-hexane (Hex), dichloromethane (DCM), ethyl acetate (EtOAc) and methanol (MeOH)) were tested for in vitro activity against Trypanosoma brucei rhodesiense (bloodstream trypomastigotes), T. cruzi (intracellular amastigotes), Leishmania donovani (axenic amastigotes) and Plasmodium falciparum (intraerythrocytic forms). Each extract was tested at two concentrations, 2 and 10 μ g/mL, for growth inhibitory activity (% GI) against the various parasites.
(§2) In vitro tests for the activity against Trypanosoma brucei rhodesiense (bloodstream trypomastigotes, STIB 900 strain), T. cruzi (amastigotes, Tulahuen C4 strain), Leishmania donovani (amastigotes, MHOM-ET-67/L82 strain), Plasmodium falciparum (intraerythrocytic forms, NF54 IEF strain), as well as for cytotoxicity against mammalian cells (L6-cell-line from rat-skeletal myoblasts) were performed according to established protocols as reported previously, e.g, in [33].

Another data set deals with P. falciparum K-1 strain. Set-up: method as in PMID 16309313. As to conditions: read-out: IC50 antiplasmodial activity; cited from earlier work.
Data set [2] has as its system Trypanosoma brucei rhodesiense (bloodstream trypomastigotes, STIB 900 strain). In words: In vitro activity against Trypanosoma brucei rhodesiense. The class given is cell-based. To be noted: for IC50: Trypanosoma brucei, read-out: IC50 T. b. rhodesiense; for SI T. b. rhodesiense: selectivity index determined with L6 cells. Here is the method:
as §1, §2

Data set [3] has as its system Leishmania donovani (amastigotes, MHOM-ET-67/L82 strain). In words: In vitro activity against Leishmania donovani. The class given is cell-based. As to conditions: for IC50: Leishmania donovani, MHOM-ET-67/L82 strain, amastigotes, geometric mean of 2 experiments ±SE (values marked a: only one experiment), read-out: IC50 L. donovani; for SI L. donovani: selectivity index determined with L6 cells. As to the method: as §1, §2

The test system of data set [4] is Plasmodium falciparum (intraerythrocytic forms, NF54 IEF strain). In words: In vitro activity against Plasmodium falciparum. The class given is cell-based. To be noted: for SI P. falciparum: selectivity index determined with L6 cells. Here is the method: as §1, §2
Data set [5] in a line: Cytotoxicity against mammalian cells. The class given is cell-based, rat. Here is the method: as §2
In a further data set the test system is T. b. rhodesiense. Also noted: method as in PMID 24165182. To be noted: in words; cited from earlier work.
In the next data set the test system is erythrocytes. Also noted: method as in PMID 15104493. To be noted: cited from earlier work.
Another data set deals with T.b. brucei. Set-up: method as in PMID 21843897. As to conditions: cited from earlier work.
For another data set, the system named is P. falciparum strain 3D7. Also noted: method as in PMID 15104493. As to conditions: read-out: IC50 in vitro antiplasmodial effect; cited from earlier work.
Data set [6] deals with trypomastigote forms of T. cruzi (Y strain). Set-up: method as in PMID 18688888. To be noted: in vitro, read-out: IC50 against trypomastigote forms of T. cruzi; cited from earlier work.
Where [7] appears, read: STIB 900 strain, trypomastigotes, geometric mean of 2 experiments ±SE (values marked a: only one experiment).
[8] abbreviates: NF54 strain, intra-erythrocytic stages, geometric mean of 2 experiments ±SE (values marked a: only one experiment), read-out: IC50 P. falciparum.
Setting [9] is: Plasmodium falciparum, NF54, NF54 strain, intra-erythrocytic stages, geometric mean of 2 experiments ±SE (values marked a: only one experiment), read-out: IC50 P. falciparum.
[10] abbreviates: L6-cell-line from rat-skeletal myoblasts, geometric mean of 2 experiments ±SE, read-out: IC50 L6 Cells (cytotoxicity).

Entries after “also recorded” stand apart in the source; their conditions may differ. Read-outs that look alike come from different tables or passages of the source.

Consider `O=C(Cn1ccnc1[N+](=O)[O-])NCc1ccccc1` [benznidazole, reference compound], for which, in [1], the IC50 was 0.653 ± 0.135 µM.

Turning to `C=CC1(C)C=C2CCC3C(C)(C)CCC(O)C3(C)C2C(O)C1` (centres unmarked) [1,11-dihydroxypimara-8(14),15-diene], the half-maximal inhibitory concentration (IC50) in the data set with P. falciparum K-1 strain is 9.8 µM.

Regarding `C=CC1(C)CCC2=C(C1)C(=O)CC1C(C)(CO)CCCC21C` (single isomer, unassigned; ent-7) [Compound 2, ent-7-oxo-pimara-8,15-diene-18-ol], the IC50 in [2] (setting [7]) was 24.3 µM; in data set [1], 15.4 µM; in data set [3] it was 18.2 µM; in data set [4] (setting [8]), 3.8 µM; in data set [4] (setting [9]), 3.85 µM; in [5] (rat) it was 48.3 ± 5.9 µM. Also, in data set [2], the “SI T. b. rhodesiense” value was 2. Moreover, the “SI T. cruzi” value in [1] was found to be 3. Also, the “SI L. donovani” value in data set [3] is 3. In addition, the “SI P. falciparum” value in [4] is 13.

`C=C1C(=O)O[C@@H]2/C=C(/CO)C3=CC(=O)[C@@](C)(C[C@@H](OC(=O)/C(C)=C/C)[C@@H]12)O3` [Compound 5, budlein A]: in the data set on T. b. rhodesiense, the “activity against T. b. rhodesiense in vitro” value was “strong anti-T. b. rhodesiense activity; also recorded: exceptionally strong activity”.

On to `C=CC1(C)CCC2=C(C1)C(=O)CC1C2(C)CCC(O)C1(C)C` (single isomer, unassigned; ent-7) [Compound 3, ent-7-oxo-pimara-8,15-diene-3β-ol], for which the half-maximal inhibitory concentration (IC50) was found to be 19.4 µM in [1], 13.8 µM in data set [3], 16.5 ± 4.9 µM in [4] (setting [9]) and 69.3 ± 10.9 µM in data set [5] (rat). In addition, the “SI T. cruzi” value in data set [1] came to 4. Also, the “SI L. donovani” value in data set [3] is on record as 5. In addition, in [4], the “SI P. falciparum” value worked out at 4.

`C=C[C@]1(C)C=C2CC[C@H]3[C@](C)(CO)[C@@H](O)CC[C@]3(C)[C@H]2CC1` [8(14),15-isopimaradien-3β,19-diol]: in the data set with erythrocytes, the effect on erythrocytes entry is “induced echinocytosis at low concentrations and caused pronounced cell lysis”.

As to `C=C1C(=O)C23CCC4C(C)(C)CCCC4(C)C2C(O)CC1C3` (single isomer, unassigned; ent-16) [11α-Hydroxy-ent-16-kauren-15-one], in the data set with T.b. brucei (cytotoxicity determined with a human embryonic cell line (MRC-5)), the SI is 3.2. Besides, in the data set with T.b. brucei (read-out: IC50 against T.b. brucei), the concentration for half-maximal inhibition (IC50) was 0.761 µM.

For the molecule `C=C[C@@]1(C)CCC2=C(CC[C@H]3C(C)(C)[C@@H](O)CC[C@]23C)C1` [8(9),15-isopimaradien-3β-ol], the IC50 in the data set on P. falciparum strain 3D7 is 24.5 µM.

`C=C1C[C@@]23CC[C@@H]4[C@](C)(CO)[C@H](O)CC[C@@]4(C)[C@@H]2CC[C@@H]1C3` (single isomer, unassigned; ent-3) [Compound 1, ent-3-α-hydroxy-kaur-16-en-18-ol]: the IC50 was 20.1 ± 0.5 µM in data set [2] (setting [7]); 55.6 µM in data set [1]; 2.5 ± 1.5 µM in data set [3]; 3.5 ± 0.2 µM in data set [4] (setting [8]); 3.54 µM in [4] (setting [9]); 40.2 ± 5.5 µM in data set [5] (setting [10]). Moreover, the “SI T. b. rhodesiense” value in data set [2] was found to be 2. The “SI T. cruzi” value in data set [1] was 1. Also, the “SI L. donovani” value in data set [3] is 16. Also, the “SI P. falciparum” value in [4] worked out at 11.

As for `Nc1nc(N)nc(Nc2ccc([As]3SCC(CO)S3)cc2)n1` (centres unmarked) [melarsoprol, reference compound], in data set [2], the IC50 is 0.025 ± 0.0005 µM.

As to `COc1cc([C@@H]2c3cc4c(cc3[C@H](O)[C@H]3COC(=O)[C@H]23)OCO4)cc(OC)c1OC` [podophyllotoxin, reference compound], the concentration for half-maximal inhibition (IC50) in data set [5] (setting [10]) came out at 0.008 µM.

For the molecule 3β-acetoxy-ent-8(14),15-pimaradiene, the half-inhibitory concentration (IC50) in [6] was 149 µM.

As to `CCCCCCCCCCCCCCCCOP(=O)([O-])OCC[N+](C)(C)C` [miltefosine, reference compound], in [3], the half-maximal inhibitory concentration (IC50) was found to be 0.049 ± 0.001 µM.

As to `C=CC1(C)C=C2CCC3C(C)(C)CC(O)C(O)C3(C)C2C(O)C1` (centres unmarked) [1,2,11-trihydroxypimara-8(14),15-diene], in the data set with P. falciparum K-1 strain, the IC50 was 27.4 µM.

As for `C=CC1(C)C=C2C(O)CC3C4(C)COC(C4)CC3(C)C2CC1` (stereo not drawn) [Compound 4, ent-2S,4S-2,19-epoxy-pimara-8(14),15-diene-7β-ol], the IC50 in [2] (setting [7]) was 47.3 ± 4.1 µM; in data set [1] it was 58.9 µM; in data set [3], 21.9 µM; in [4] (setting [9]), 16.1 ± 6.1 µM; in [5] (rat) it was 101 ± 45.7 µM. Further, the “SI T. b. rhodesiense” value in data set [2] was 2. The “SI T. cruzi” value in data set [1] was found to be 2. In data set [3], the “SI L. donovani” value turned out to be 5. Also, the “SI P. falciparum” value in data set [4] was found to be 6.

With `CCN(CC)CCCC(C)Nc1ccnc2cc(Cl)ccc12` (centres unmarked) [chloroquine, reference compound], in data set [4] (Plasmodium falciparum, NF54, read-out: IC50 P. falciparum), the IC50 was found to be 0.003 ± 0.001 µM.

Regarding `C=C[C@@]1(C)CC[C@@H]2[C@](O)(CC[C@@H]3[C@](C)(CO)CCC[C@]32C)C1` (single isomer, unassigned; ent-15) [ent-15-pimarene-8β,19-diol], the IC50 in data set [6] was 116 µM.

Usually IC50 stands for the concentration at which inhibition is half-maximal.
